Data: patent US10881110B2, “Herbicidal compositions comprising isoxazolo[5,4-b]pyridines” (BASF SE, priority 2014, dated 2021)
Where two headings read alike, the source gives them in different places.

Experiments:
[1] = system: CONAR; experiment: greenhouse post-emergence herbicidal test; assay type: in vivo, Convolvulus arvensis; design: key: rating on a scale from 0 to 100
In short: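 Seeds sown per species in loamy sand with roughly 4.6% humus; seedlings raised to 1 to 15 cm, then treated with water-borne spray of a 10% by weight emulsion concentrate. Response assessed on day 20 from 0 (normal growth) to 100 (destroyed).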

[2] = system: POLCO; experiment: greenhouse post-emergence herbicidal test; assay type: in vivo, Polygonum convolvulus; design: key to herbicidal activity against POLCO found: rating on a scale from 0 to 100; settings: post emergence
In short: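 Post-emergence greenhouse test: plants in loamy sand, sprayed at 1–15 cm height with aqueous spray liquor from 10% emulsion concentrates, kept at 10-25 °C or 20-35 °C by species. Damage scored 0–100 (100 = complete destruction), usually 20 days after treatment. Expected additive effect E from Colby: E=X+Y−(X·Y/100).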

[3] = 6 days after treatment, g/ha a.i.: I.1 31.25, naptalam 50, mixture 31.25+50
[4] = 6 days after treatment, g/ha a.i.: I.1 62.5, B.96 140, mixture 62.5+140
[5] = a.i. g/ha: I.1 15.6, B.67 125, 20 days after treatment
[6] = a.i. g/ha: I.1 20.8, B.67 62.5, 20 days after treatment
[7] = a.i. g/ha: I.1 31.25, B.67 125, 20 days after treatment
[8] = a.i. g/ha: I.1 62.5, B.67 62.5, 20 days after treatment
[9] = application rate a.i.: I.1 31.25 g/ha, B.139 (pyroxasulfone) 12.5 g/ha, alone or as mixture (composition 1.139)
[10] = application rate a.i.: I.1 62.5 g/ha, B.84 (paraquat-dichloride) 17.5 g/ha, alone or as mixture (composition 1.84)

O=C(O)c1cc(C2CC2)nc2onc(C3CC3)c12 [I.1]
herbicidal activity against CONAR found ([1]; 125 g/ha a.i.): 70 | herbicidal activity against CONAR found [1, 3]: 5 | herbicidal activity against CONAR found ([1]; 6 days after treatment, g/ha a.i.: I.1 31.25, naptalam 100, mixture 31.25+100): 5 | herbicidal activity against CONAR found ([1]; 6 days after treatment, g/ha a.i.: I.1 31.25, naptalam 200, mixture 31.25+200): 5 | herbicidal activity against CONAR found [1, 4]: 65 | herbicidal activity against CONAR found ([1]; 6 days after treatment, g/ha a.i.: I.1 125, naptalam 100, mixture 125+100): 70 | herbicidal activity against CONAR found ([1]; a.i. g/ha: I.1 7.8, B.67 125, 20 days after treatment): 0% | herbicidal activity against CONAR found [1, 5]: 0% | herbicidal activity against CONAR found [1, 6]: 0% | herbicidal activity against CONAR found [1, 7]: 0% | herbicidal activity against CONAR found ([1]; a.i. g/ha: I.1 31.25, B.69 25, 20 days after treatment): 70% | herbicidal activity against CONAR found [1, 8]: 25% | herbicidal activity against CONAR found ([1]; a.i. g/ha: I.1 62.5, B.67 125, 20 days after treatment): 0% | herbicidal activity against CONAR found ([1]; a.i. g/ha: I.1 62.5, B.69 25, 20 days after treatment): 65% | herbicidal activity against CONAR found ([1]; a.i. g/ha: I.1 62.5, B.76 225, 20 days after treatment): 65% | herbicidal activity against CONAR found ([1]; a.i. g/ha: I.1 62.5, B.77 75, 20 days after treatment): 25% | herbicidal activity against CONAR found ([1]; a.i. g/ha: I.1 62.5, B.80 250, 20 days after treatment): 25% | herbicidal activity against CONAR found [1, 9]: 30 | herbicidal activity against CONAR found ([1]; application rate a.i.: I.1 31.25 g/ha, B.139 (pyroxasulfone) 25 g/ha, alone or as mixture (composition 1.139)): 30 | herbicidal activity against CONAR found ([1]; application rate a.i.: I.1 62.5 g/ha, B.30 (imazamox) 3.75 g/ha, alone or as mixture (composition 1.030)): 25 | herbicidal activity against CONAR found [1, 10]: 45 | herbicidal activity against CONAR found ([1]; application rate a.i.: I.1 125 g/ha, B.113 (glyphosate) 33.75 g/ha, alone or as mixture (composition 1.113)): 80 | pest or weed control at 31.25 g/ha ([2]; Fallopia convolvulus, post-emergence, 480 h, I.1 alone 31.25 g/ha a.i., read-out: herbicidal activity against POLCO found): 0% | pest or weed control at 62.5 g/ha ([2]; Fallopia convolvulus, post-emergence, 480 h, I.1 alone 62.5 g/ha a.i., read-out: herbicidal activity against POLCO found): 65% | pest or weed control at 125 g/ha ([2]; Fallopia convolvulus, post-emergence, 480 h, I.1 alone 125 g/ha a.i., read-out: herbicidal activity against POLCO found): 65% | pest or weed control at 31.25 g/ha ([2]; Fallopia convolvulus, post-emergence, 480 h, I.1 31.25 g/ha a.i., read-out: herbicidal activity against POLCO found): 20% | pest or weed control at 31.25 g/ha ([2]; Fallopia convolvulus, post-emergence, 480 h, single active, 31.25 g/ha a.i., read-out: herbicidal activity against POLCO found): 20% | herbicidal activity against POLCO found ([2]; 6 days after treatment, g/ha a.i.: I.1 31.25, B.96 70, mixture 31.25+70): 35 | herbicidal activity against POLCO found ([2]; 6 days after treatment, g/ha a.i.: I.1 31.25, B.96 140, mixture 31.25+140): 35 | herbicidal activity against POLCO found [2, 3]: 35 | herbicidal activity against POLCO found ([2]; 6 days after treatment, g/ha a.i.: I.1 62.5, B.96 70, mixture 62.5+70): 70 | herbicidal activity against POLCO found [2, 4]: 70 | herbicidal activity against POLCO found ([2]; 6 days after treatment, g/ha a.i.: I.1 62.5, naptalam 50, mixture 62.5+50): 70 | herbicidal activity against POLCO found ([2]; I.1 15.6 g/ha, B.103 7.5 g/ha a.i.): 10 | herbicidal activity against POLCO found ([2]; I.1 15.62 g/ha, B.167 62.5 g/ha a.i.): 10 | herbicidal activity against POLCO found ([2]; I.1 15.62 g/ha, B.167 125 g/ha a.i.): 10 | herbicidal activity against POLCO found ([2]; I.1 15.62 g/ha, B.89 12.5 g/ha a.i.): 0 | herbicidal activity against POLCO found ([2]; I.1 62.5 g/ha, B.103 7.5 g/ha a.i.): 40 | herbicidal activity against POLCO found ([2]; I.1 62.5 g/ha, B.103 15 g/ha a.i.): 40 | herbicidal activity against POLCO found ([2]; I.1 62.5 g/ha, B.167 62.5 g/ha a.i.): 40 | herbicidal activity against POLCO found ([2]; I.1 62.5 g/ha, B.167 125 g/ha a.i.): 40 | herbicidal activity against POLCO found ([2]; a.i. g/ha: I.1 15.6, B.190 62.5, 20 days after treatment): 30% | herbicidal activity against POLCO found [2, 5]: 0% | herbicidal activity against POLCO found [2, 6]: 30% | herbicidal activity against POLCO found ([2]; a.i. g/ha: I.1 20.8, B.79 25, 20 days after treatment): 50% | herbicidal activity against POLCO found ([2]; a.i. g/ha: I.1 31.25, B.190 62.5, 20 days after treatment): 50% | herbicidal activity against POLCO found [2, 7]: 0% | herbicidal activity against POLCO found ([2]; a.i. g/ha: I.1 31.25, bentazon Na 125, 20 days after treatment): 50% | herbicidal activity against POLCO found [2, 8]: 65% | herbicidal activity against POLCO found ([2]; a.i. g/ha: I.1 62.5, B.79 25, 20 days after treatment): 75% | herbicidal activity against POLCO found ([2]; application rate a.i.: I.1 31.25 g/ha, B.100 (isoxaflutole) 12.5 g/ha, alone or as mixture (composition 1.100)): 70 | herbicidal activity against POLCO found [2, 9]: 65 | herbicidal activity against POLCO found ([2]; application rate a.i.: I.1 31.25 g/ha, B.40 (imazethapyr) 7.5 g/ha, alone or as mixture (composition 1.40)): 20 | herbicidal activity against POLCO found ([2]; application rate a.i.: I.1 62.5 g/ha, B.107 (topramezone) 6 g/ha, alone or as mixture (composition 1.107)): 75 | herbicidal activity against POLCO found [2, 10]: 90 | herbicidal activity against POLCO found ([2]; applied alone at 31.25 g/ha a.i.): 65 | herbicidal activity against POLCO found ([2]; applied alone at 62.5 g/ha a.i.): 90 | herbicidal activity against POLCO found ([2]; applied alone at 125 g/ha a.i.): 85 | herbicidal activity against POLCO found ([2]; g/ha a.i.: I.1 31.25, B.63 1, mixture 31.25+1): 30 | herbicidal activity against POLCO found ([2]; g/ha a.i.: I.1 125, B.63 0.5, mixture 125+0.5): 80 | herbicidal activity against POLCO found ([2]; g/ha a.i.: I.1 125, B.63 1, mixture 125+1): 80
